Reference: the NIST ThermoML archive (doi:10.1021/je400968v)
Numbers after ± are expanded uncertainties.

Tests used:
[1] = 101 kPa, Liquid; for viscosity: Capillary tube (Ostwald / Ubbelohde) method; for mass density: Vibrating tube method
[2] = mn = molality of the nth substance listed, in mol/kg; details: 101 kPa, Liquid; for viscosity: Capillary tube (Ostwald / Ubbelohde) method; for mass density: Vibrating tube method

CCCCO [butan-1-ol]
[1]
Details | mass density [kg/m3] | viscosity [mPa·s]
293.15 K | 809.69 ± 0.17 | 2.908 ± 0.019
303.15 K | 802.04 ± 0.17 | 2.225 ± 0.015
313.15 K | 794.27 ± 0.17 | 1.723 ± 0.012
323.15 K | 786.32 ± 0.17 | 1.351 ± 0.009
333.15 K | 778.16 ± 0.17 | 1.071 ± 0.008

CCO [ethanol]
[1]
Details | mass density [kg/m3] | viscosity [mPa·s]
293.15 K | 789.56 ± 0.16 | 1.179 ± 0.008
303.15 K | 780.98 ± 0.16 | 0.972 ± 0.006
313.15 K | 772.22 ± 0.16 | 0.806 ± 0.006
323.15 K | 763.29 ± 0.17 | 0.672 ± 0.005
333.15 K | 754.18 ± 0.17 | 0.564 ± 0.004

CCCO [propan-1-ol] + Cc1c(N)cccc1N
[2], m2 = 0
Details | mass density [kg/m3] | viscosity [mPa·s]
293.15 K | 803.86 ± 0.17 | 2.171 ± 0.014
303.15 K | 795.54 ± 0.17 | 1.696 ± 0.012
313.15 K | 787.37 ± 0.17 | 1.338 ± 0.009
323.15 K | 779.01 ± 0.18 | 1.067 ± 0.007
333.15 K | 770.42 ± 0.18 | 0.859 ± 0.006

CCCO [propan-1-ol] + Cc1ccc(N)cc1N
[2], m2 = 0
Details | mass density [kg/m3] | viscosity [mPa·s]
293.15 K | 803.86 ± 0.17 | 2.171 ± 0.014
303.15 K | 795.54 ± 0.17 | 1.696 ± 0.012
313.15 K | 787.37 ± 0.17 | 1.338 ± 0.009
323.15 K | 779.01 ± 0.18 | 1.067 ± 0.007
333.15 K | 770.42 ± 0.18 | 0.859 ± 0.006

Cc1ccc(N)cc1N [4-methyl-1,3-benzendiamine] + O
[2]
Details | mass density, 293.15 K [kg/m3] | mass density, 303.15 K [kg/m3] | mass density, 313.15 K [kg/m3] | mass density, 323.15 K [kg/m3] | mass density, 333.15 K [kg/m3] | viscosity, 293.15 K [mPa·s] | viscosity, 303.15 K [mPa·s] | viscosity, 313.15 K [mPa·s] | viscosity, 323.15 K [mPa·s] | viscosity, 333.15 K [mPa·s]
m1 = 0.0503 | 998.84 ± 0.23 | 996.26 ± 0.23 | 992.81 ± 0.23 | 988.59 ± 0.23 | 983.71 ± 0.23 | 1.018 ± 0.008 | 0.81 ± 0.007 | 0.662 ± 0.006 | 0.554 ± 0.005 | 0.472 ± 0.004
m1 = 0.0998 | 999.45 ± 0.23 | 996.84 ± 0.23 | 993.36 ± 0.23 | 989.11 ± 0.23 | 984.2 ± 0.23 | 1.035 ± 0.008 | 0.822 ± 0.007 | 0.671 ± 0.006 | 0.562 ± 0.005 | 0.479 ± 0.004
m1 = 0.1503 | 1000.06 ± 0.23 | 997.41 ± 0.23 | 993.9 ± 0.23 | 989.62 ± 0.23 | 984.68 ± 0.23 | 1.051 ± 0.009 | 0.831 ± 0.007 | 0.679 ± 0.006 | 0.571 ± 0.005 | 0.484 ± 0.004
m1 = 0.1999 | 1000.64 ± 0.23 | 997.95 ± 0.23 | 994.42 ± 0.23 | 990.11 ± 0.23 | 985.14 ± 0.23 | 1.069 ± 0.009 | 0.842 ± 0.007 | 0.686 ± 0.006 | 0.578 ± 0.005 | 0.49 ± 0.004
